Where two headings read alike, the source gives them in different places.

Type in all cases: cell-based
For one experiment, the system named is H358 cells. As to the kind of experiment: H358 proliferation assay (CellTiter-Glo). The settings on record: 120 h incubation, read-out: IC50 (nM), inhibitory activity against H358 cell proliferation. Here is the method:
The inhibitory activity of the compounds of the present disclosure against H358 cell proliferation was measured. Below is a brief description of the experimental method: H358 cells (ATCC, CRL-5807) were cultured in RPMI1640 medium (Hyclone, SH30809.01) containing 10% fetal bovine serum (Corning, 35-076-CV) (i.e., complete medium). On the first day of the experiment, H358 cells were seeded into a 96-well plate at a density of 1200 cells/well using complete medium, with 100 μL of cell suspension per well, and the plate was incubated overnight in a 37° C., 5% CO2 cell incubator. On the second day, the test compounds, prepared in complete medium and serially diluted, were added at 10 μL/well. The final concentrations of the compounds were 9 concentration points obtained by a 5-fold serial dilution from 10 μM. A blank control containing 0.5% DMSO was set up. The plate was incubated for 120 h in a 37° C., 5% CO2 cell incubator. On the seventh day, the 96-well cell plate was removed from the incubator, and CellTiter-Glo® Luminescent Cell Viability Assay (Promega, G7573) was added at 50 μL/well. After 10 min of room temperature incubation, luminescence signals were measured using a multifunctional microplate reader (PerkinElmer, EnVision® 2105). The IC50 values for the inhibitory activity of the compounds were calculated using Graphpad Prism software.
A general note: In ATP-based viability assays light output follows the ATP content of the culture.

For another experiment, the system named is MIA PaCa-2 cells. As to the kind of experiment: MIA PaCa-2 cell proliferation assay (CellTiter-Glo). The settings on record: 72 h incubation, read-out: IC50 (nM), inhibitory activity against MIA PaCa-2 cell proliferation. Here is the method: The inhibitory activity of the compounds of the present disclosure against MIA PaCa-2 cell proliferation was measured. Below is a brief description of the experimental method:
MIA PaCa-2 cells (ATCC, CRL-1420) were cultured in DMEM/HIGH GLUCOSE medium (GE, SH30243.01) containing 10% fetal bovine serum (Corning, 35-076-CV) and 2.5% horse serum (Beyotime Biological Tech., C0262) (i.e., complete medium). On the first day of the experiment, MIA PaCa-2 cells were seeded into a 96-well plate at a density of 500 cells/well using complete medium, with 90 µL of cell suspension per well, and the plate was incubated overnight in a 37° C., 5% CO2 cell incubator. On the second day, the test compounds, prepared in complete medium and serially diluted, were added at 10 μL/well. The final concentrations of the compounds were 9 concentration points obtained by a 5-fold serial dilution from 10 μM. A blank control containing 0.5% DMSO was set up. The plate was incubated for 72 h in a 37° C., 5% CO2 cell incubator. On the fifth day, the 96-well cell plate was removed from the incubator, and CellTiter-Glo® Luminescent Cell Viability Assay (Promega, G7573) was added at 50 μL/well. After 10 min of room temperature incubation, luminescence signals were measured using a multifunctional microplate reader (PerkinElmer, EnVision2015). The IC50 values for the inhibitory activity of the compounds were calculated using Graphpad Prism software.

Experiment [1] relates to ERK phosphorylation in H358 cells. As to the kind of experiment: H358 cell ERK phosphorylation inhibition assay (HTRF pERK/total ERK). The settings on record: 3 h incubation, ratio of pERK/total ERK, read-out: IC50 (nM), inhibitory effects on ERK phosphorylation in H358 cells. Here is the method:
The inhibitory effects of the compounds of the present disclosure on ERK phosphorylation in H358 cells were measured. Below is a brief description of the experimental method: H358 cells (ATCC, CRL-5807) were cultured in RPMI1640 medium (Hyclone, SH30809.01) containing 10% fetal bovine serum (Corning, 35-076-CV) (i.e., complete medium). On the first day of the experiment, H358 cells were seeded into a 96-well plate at a density of 25,000 cells/well using complete medium, with 190 μL of cell suspension per well, and the plate was incubated overnight in a 37° C., 5% CO2 cell incubator. On the second day, the test compounds, prepared in complete medium and serially diluted, were added at 10 μL/well. The final concentrations of the compounds were 9 concentration points obtained by a 6-fold serial dilution from 10 μM. A blank control containing 0.5% DMSO was set up. The plate was incubated for 3 h in a 37° C., 5% CO2 cell incubator. After 3 h, the 96-well cell culture plate was removed from the incubator, and the culture medium was pipetted off. PBS (Shanghai BasalMedia Technologies Co., Ltd., B320) was added at 200 μL/well for a single wash. PBS was pipetted off, and lysis buffer (Cisbio, 64KL1FDF) containing a blocking agent (Cisbio, 64KB1AAC) was added at 50 μL/well. The plate was incubated on a shaker for 30 min at room temperature to lyse the cells. After lysis, the lysates were well mixed by pipetting, and 16 μL of lysate was transferred from each well to two HTRF 96-well assay plates (Cisbio, 66PL96100). Subsequently, 4 μL of a premixed phospho-ERK1/2 antibody solution (Cisbio, 64AERPEG) or 4 μL of a premixed total-ERK1/2 antibody solution (Cisbio, 64NRKPEG) was added to each of the plates. The plates were sealed with a plate sealer film, centrifuged for 1 min in a microplate centrifuge, and incubated overnight at room temperature in the dark. On the third day, fluorescence values at an excitation wavelength of 337 nm and emission wavelengths of 665 nm and 620 nm were measured using a PHERAstar multifunctional microplate reader (BMG Labtech, PHERAstar FS). The IC50 values for the inhibitory activity of the compounds were calculated using Graphpad Prism software, based on the compound concentration and the ratio of pERK/total ERK.

As to `C=C(F)C(=O)N1CCN2C(=O)c3cc(F)c(-c4ccc(F)c5sc(N)c(C#N)c45)c4cnn(c34)CC[C@H]2C1` (atropisomer, axis not shown) [Example 6-P2, (S)-2-Amino-7-fluoro-4-((S)-2-fluoro-10-(2-fluoroacryloyl)-14-oxo-8,8a,9,10,11,12-hexahydro-7H,14H-pyrazino[1′,2′:5,6][1,5]diazocino[3,2,1-hi]indazol-3-yl)benzo[b]thiophene-3-carbonitrile], the IC50 in the experiment with H358 cells (Homo sapiens, NCI-H358, 120 h) turned out to be 5.73 nM; with MIA PaCa-2 cells, 5.39 nM; in experiment [1] it was 0.35 nM.

Take `C=CC(=O)N1CCN2C(=O)c3cc(F)c(-c4ccc(F)c5sc(N)c(C#N)c45)c4c(Cl)nn(c34)CC[C@H]2C1` (atropisomer, axis not shown) [Example 7-P2, (S)-4-((S)-10-Acryloyl-4-chloro-2-fluoro-14-oxo-8,8a,9,10,11,12-hexahydro-7H,14H-pyrazino[1′,2′:5,6][1,5]diazocino[3,2,1-hi]indazol-3-yl)-2-amino-7-fluorobenzo[b]thiophene-3-carbonitrile]: the IC50 came out at 0.74 nM with H358 cells (Homo sapiens, NCI-H358, 120 h); 0.28 nM with MIA PaCa-2 cells (Homo sapiens, MIA PaCa-2, 72 h); 0.13 nM in experiment [1] (Homo sapiens, NCI-H358, 3 h).

Turning to `C=CC(=O)N1CCN2C(=O)c3cc(F)c(-c4ccc(F)c5sc(N)c(C#N)c45)c4c(F)nn(c34)CC[C@H]2C1` (atropisomer, axis not shown) [Example 8-P2, (S)-4-((S)-10-Acryloyl-2,4-difluoro-14-oxo-8,8a,9,10,11,12-hexahydro-7H,14H-pyrazino[1′,2′:5][1,5]diazocino[3,2,1-hi]indazol-3-yl)-2-amino-7-fluorobenzo[b]thiophene-3-carbonitrile], the IC50 with H358 cells (Homo sapiens, NCI-H358, 120 h) worked out at 0.84 nM; with MIA PaCa-2 cells (Homo sapiens, MIA PaCa-2, 72 h), 0.19 nM; in experiment [1] (Homo sapiens, NCI-H358, 3 h), 0.16 nM.

As to `C=CC(=O)N1CCN2C(=O)c3cc(F)c(-c4ccc(F)c5sc(N)c(C#N)c45)c4c(C)nn(c34)CC[C@H]2C1` (atropisomer, axis not shown) [Example 9-P2, (S)-4-((S)-10-Acryloyl-2-fluoro-4-methyl-14-oxo-8,8a,9,10,11,12-hexahydro-7H,14H-pyrazino[1′,2′:5,6][1,5]diazocino[3,2,1-hi]indazol-3-yl)-2-amino-7-fluorobenzo[b]thiophene-3-carbonitrile], the IC50 with H358 cells (Homo sapiens, NCI-H358, 120 h) worked out at 0.52 nM; with MIA PaCa-2 cells (Homo sapiens, MIA PaCa-2, 72 h), 0.37 nM; in experiment [1], 0.06 nM.

As for `C=CC(=O)N1CCN2C(=O)c3c(F)c(F)c(-c4ccc(F)c5sc(N)c(C#N)c45)c4cnn(c34)CC[C@H]2C1` (atropisomer, axis not shown) [Example 11-P1, (R)-4-((S)-10-Acryloyl-1,2-difluoro-14-oxo-8,8a,9,10,11,12-hexahydro-7H,14H-pyrazino[1′,2′:5.6][1,5]diazocino[3,2,1-hi]indazol-3-yl)-2-amino-7-fluorobenzo[b]thiophene-3-carbonitrile], the IC50 was 2.25 nM with H358 cells, 2.71 nM with MIA PaCa-2 cells and 7.67 nM in experiment [1].

Take `C=CC(=O)N1CCN2C(=O)c3c(F)c(F)c(-c4ccc(F)c5sc(N)c(C#N)c45)c4cnn(c34)CC[C@H]2C1` (atropisomer, axis not shown) [Example 11-P2, (S)-4-((S)-10-Acryloyl-1,2-difluoro-14-oxo-8,8a,9,10,11,12-hexahydro-7H,14H-pyrazino[1′,2′:5.6][1,5]diazocino[3,2,1-hi]indazol-3-yl)-2-amino-7-fluorobenzo[b]thiophene-3-carbonitrile]: the IC50 with H358 cells was 0.32 nM; in the experiment on MIA PaCa-2 cells, 0.46 nM; in experiment [1], 0.09 nM.

Take `C=CC(=O)N1CCN2C(=O)c3cc(F)c(-c4ccc(F)c5sc(N)c(C#N)c45)c4c(F)cn(c34)CC[C@H]2C1` (atropisomer, axis not shown) [Example 13-P2, (S)-4-((S)-10-Acryloyl-2,4-difluoro-14-oxo-8,8a,9,10,11,12-hexahydro-7H,14H-pyrazino[1′,2′:5.6][1,5]diazocino[3,2,1-hi]indol-3-yl)-2-amino-7-fluorobenzo[b]thiophene-3-carbonitrile]: the IC50 with H358 cells (Homo sapiens, NCI-H358, 120 h) stood at 11.4 nM; with MIA PaCa-2 cells (Homo sapiens, MIA PaCa-2, 72 h) it was 20.5 nM; in experiment [1] (Homo sapiens, NCI-H358, 3 h), 0.76 nM.

Take `C=C(F)C(=O)N1CCN2C(=O)c3cc(F)c(-c4ccc(F)c5sc(N)c(C#N)c45)c4c(C)nn(c34)CC[C@H]2C1` (atropisomer, axis not shown) [Example 15-P1, (R)-2-Amino-7-fluoro-4-((S)-2-fluoro-10-(2-fluoroacryloyl)-4-methyl-14-oxo-8,8a,9,10,11,12-hexahydro-7H,14H-pyrazino[1′,2′:5,6][1,5]diazocino[3,2,1-hi]indazol-3-yl)benzo[b]thiophene-3-carbonitrile]: the IC50 in the experiment with H358 cells was found to be 41.6 nM; with MIA PaCa-2 cells, 56.8 nM; in experiment [1] it was 19.7 nM.

For the compound `C=C(F)C(=O)N1CCN2C(=O)c3cc(F)c(-c4ccc(F)c5sc(N)c(C#N)c45)c4c(C)nn(c34)CC[C@H]2C1` (atropisomer, axis not shown) [Example 15-P2, (S)-2-Amino-7-fluoro-4-((S)-2-fluoro-10-(2-fluoroacryloyl)-4-methyl-14-oxo-8,8a,9,10,11,12-hexahydro-7H,14H-pyrazino[1′,2′:5,6][1,5]diazocino[3,2,1-hi]indazol-3-yl)benzo[b]thiophene-3-carbonitrile], the IC50 was determined as 4.21 nM in the experiment with H358 cells, 7.75 nM in the experiment with MIA PaCa-2 cells and 3.94 nM in experiment [1].

In the case of `C=C(F)C(=O)N1CCN2C(=O)c3cc(F)c(-c4ccc(F)c5sc(N)c(C#N)c45)c4c(F)nn(c34)CC[C@H]2C1` (atropisomer, axis not shown) [Example 16-P2, (S)-2-Amino-4-((S)-2,4-difluoro-10-(2-fluoroacryloyl)-14-oxo-8,8a,9,10,11,12-hexahydro-7H,14H-pyrazino[1′,2′:5,6][1,5]diazocino[3,2,1-hi]indazol-3-yl)-7-fluorobenzo[b]thiophene-3-carbonitrile], the IC50 in the experiment with H358 cells (Homo sapiens, NCI-H358, 120 h) was found to be 8 nM; with MIA PaCa-2 cells (Homo sapiens, MIA PaCa-2, 72 h), 4.56 nM; in experiment [1] (Homo sapiens, NCI-H358, 3 h), 1.06 nM.
